Data as given in patent publication US20050277779A1, “Antifungal and antimycobacterial basiliskamides” (priority 1998, published 2005).
Converted amounts (≈) assume the structure as drawn.

Assays:
[1] = test system: normal human fibroblast cells; experiment: Cytotoxicity testing, cytopathic effect; assay type: cell-based; design: key to Cytopathic Effect (48 hours): 1: slight change in morphology vs. control; 2: occasional rounding, vacuolization, or granularity; 3: rounding, vacuolization, detachment of 50% of cells; 4: destruction of monolayer; conditions: for Cytopathic Effect (48 hours): Human Fibroblast
Procedure: (§1) Cytotoxicity Testing of Basiliskamide A: Serial dilutions of basiliskamide A were prepared in cell culture medium and tested for toxicity for normal human fibroblast cells and for human tumor cell line. […] The appearance of the cells was assessed after 48 hours exposure to the compounds. Basiliskamide produced no cytotoxicity for normal human fibroblast cells at concentrations less than 100 μg/ml compared to amphotericin B (ampho) which was toxic at concentrations as low as 25 μg/ml.

[2] = test system: Clinical Isolates of Candida albicans; experiment: Macrobroth dilution against 7 clinical isolates
human tumor cell line = experiment: Cytotoxicity testing, cytopathic effect; assay type: cell-based; design: key: 1: slight change in morphology vs. control; 2: occasional rounding, vacuolization, or granularity; 3: rounding, vacuolization, detachment of 50% of cells; 4: destruction of monolayer
Procedure: as §1

Trichophyton rubrum [3] = experiment: Antifungal agar dilution; conditions: read-out: Minimal Inhibitory Concentration
[4] = test system: Mycobacterium tuberculosis; conditions: agar dilution
Procedure: (§2) Antimycobacterial Activity of the Basiliskamides: The Basiliskamides were tested for antimycobacierial activity using a standardized agar dilution method (Underlied, C B and Salfinger, S. 1995. In Manual of Clinical Microbiology, Murray, Baron, Pfaller, Tenover, Yolken (Eds.), ASM Press, page 1395-1404).

Aspergillus fumigatus [5] = experiment: Antifungal agar dilution
Candida albicans [6] = experiment: Antifungal macrobroth dilution (NCCLS M27-A); conditions: read-out: Minimal Inhibitory Concentration
Trichophyton rubrum [7] = experiment: Antifungal macrobroth dilution (NCCLS M27-A); conditions: read-out: Minimal Inhibitory Concentration
Candida albicans [8] = experiment: Antifungal agar dilution
[9] = test system: Mycobacterium tuberculosis; experiment: microbe, parasite or virus in culture; conditions: read-out: Minimal Inhibitory Concentration
Procedure: as §2

M. avium-intracellulare = assay type: cell-based, Mycobacterium avium-infracellulare; conditions: agar dilution
Aspergillus fumigatus [10] = experiment: Antifungal macrobroth dilution (NCCLS M27-A); conditions: read-out: Minimal Inhibitory Concentration
[11] = read-out: Minimal Inhibitory Concentration

C[C@@H]1[C@H](O)[C@@H](C)/C=C/C=C/C=C/C=C/C=C/C=C/C=C/[C@H](O[C@@H]2O[C@H](C)[C@@H](O)[C@H](N)[C@@H]2O)C[C@@H]2O[C@](O)(C[C@@H](O)C[C@@H](O)[C@H](O)CC[C@@H](O)C[C@@H](O)CC(=O)O[C@H]1C)C[C@H](O)[C@H]2C(=O)O [Amphotericin B]
Cytopathic Effect (48 hours) ([1]; 0.78 μg/ml): 0 | Cytopathic Effect (48 hours) ([1]; 1.57 μg/ml): 0 | Cytopathic Effect (48 hours) ([1]; 3.12 μg/ml): 0 | Cytopathic Effect (48 hours) ([1]; 6.25 μg/ml): 0 | Cytopathic Effect (48 hours) ([1]; 12.5 μg/ml): 1 | Cytopathic Effect (48 hours) ([1]; 25 μg/ml): 2 | Cytopathic Effect (48 hours) ([1]; 50 μg/ml): 2 | Cytopathic Effect (48 hours) ([1]; 100 μg/ml): 4 | concentrations at which toxic ([1]; normal human fibroblast cells, 48 hours exposure): ≥ 25000 ng/mL | Minimal Inhibitory Concentration ([2]; C. albicans clinical isolate 8167): 0.5 µg/mL | Minimal Inhibitory Concentration ([2]; C. albicans clinical isolate 8362): 0.5 µg/mL | Minimal Inhibitory Concentration ([2]; C. albicans clinical isolate 8363): 0.5 µg/mL | Minimal Inhibitory Concentration ([2]; C. albicans clinical isolate 8364): 0.5 µg/mL | Minimal Inhibitory Concentration ([2]; C. albicans clinical isolate 8365): 0.5 µg/mL | Minimal Inhibitory Concentration ([2]; C. albicans clinical isolate 8366): 0.5 µg/mL | Minimal Inhibitory Concentration ([2]; C. albicans clinical isolate 8367): 0.5 µg/mL | Cytopathic Effect (48 hours) (human tumor cell line; 0.78 μg/ml): 0 | Cytopathic Effect (48 hours) (human tumor cell line; 1.57 μg/ml): 0 | Cytopathic Effect (48 hours) (human tumor cell line; 3.12 μg/ml): 0 | Cytopathic Effect (48 hours) (human tumor cell line; 6.25 μg/ml): 0 | Cytopathic Effect (48 hours) (human tumor cell line; 12.5 μg/ml): 0 | Cytopathic Effect (48 hours) (human tumor cell line; 25 μg/ml): 1 | Cytopathic Effect (48 hours) (human tumor cell line; 50 μg/ml): 3 | Cytopathic Effect (48 hours) (human tumor cell line; 100 μg/ml): 4

CC[C@@H](C)[C@H](O)[C@H](C)[C@@H](C/C=C/C=C\C(N)=O)OC(=O)/C=C/c1ccccc1 [Basiliskamide B]
MIC (Trichophyton rubrum [3]): 5 µg/mL (≈ 13 µM) | activity against M. tuberculosis (in words) [4]: have activity | activity relative to YL-03709B-A (Aspergillus fumigatus [5]; agar dilution, from Table 5): significantly more active | MIC (Aspergillus fumigatus [5]; [11]): 5 µg/mL (≈ 13 µM) | MIC (Candida albicans [6]): ≥ 32 µg/mL | MIC (Trichophyton rubrum [7]): 4 µg/mL (≈ 10.4 µM) | activity relative to YL-03709B-A (Candida albicans [8]; agar dilution, from Table 5): significantly more active | MIC (Candida albicans [8]; [11]): 3.1 µg/mL (≈ 8.04 µM) | MIC [9]: 50 µg/mL (≈ 130 µM) | MIC (M. avium-intracellulare; Mycobacterium, M. avium-intracellulare, read-out: Minimal Inhibitory Concentration): > 100 µg/mL | activity against M. avium-intracellulare (in words) (M. avium-intracellulare): relatively inactive | MIC (Aspergillus fumigatus [10]): ≥ 32 µg/mL
